In brackets after ≈: the same amount, converted by molar mass. Numbered stars: 1 amine (or outer) side, 2 acyl side, 3 side chain; on linkers, the order of the positions; unused ones are H or OH. Bridge positions count the residues as written; N and C are the ends. Square brackets hold non-standard residues; d marks the D form. Peptide text beside a SMILES is read from it. * marks the point of attachment. Orn(4R-OH,5R-OH) = O=C([C@H](C[C@@H](O)[C@@H](O)N[*:3])N[*:1])[*:2]; hTyr(3S-OH,4S-OH) = N[C@H](C(=O)O)[C@H](O)[C@@H](O)c1ccc(O)cc1; Pro(3S-OH,4S-Me) = C[C@H]1CN[C@H](C(=O)O)[C@H]1O; Benzoyl(4-octyloxy) = CCCCCCCCOc1ccc(C(=O)*)cc1; Hyp = O=C(O)[C@@H]1C[C@@H](O)CN1
How the values were obtained:
[1] = system: fungal organisms; assay: Microtiter broth dilution assay of antifungal activity (MIC) in the presence and absence of 0.8M sorbitol; format: cell-based; details: for MIC: 48 h, read-out: Broth Dilution Assay MIC at 2 day growth, w/o sorbitol; for Broth Dilution Assay MIC at 2 day growth, with sorbitol: with 0.8M sorbitol; for Broth Dilution Assay MIC at 2 day growth, with sorbitol / Broth Dilution Assay MIC at 2 day growth, w/o sorbitol: final concentration of cells 2 × 10^5 organisms/ml; for Broth Dilution Assay MIC at 2 day growth, w/o sorbitol: without sorbitol
Description: Minimal inhibitory concentrations (MICs) of corynecandin related compounds in the microtiter broth dilution in the presence and absence of 0.8M sorbitol assay were determined by a broth dilution assay described by Frost, D., Brandt, K., Cugier, D., and Goldman, R. in J. Antibiotics 48: 306-310 (1995), which is incorporated herein by reference.
^a Assay conducted as described in Frost et al., ibid, except final
concentration of cells was 2 × 10^5 organisms/ml.

[2] = target: T1, (1,3)-β-Glucan Synthase (Candida albicans, UniProt A0A1D8PCT0); assay: In vitro inhibition of (1,3)-β-glucan synthase activity; format: biochemical
T1 construct: integral plasma membrane protein
From the text: The fungal cell wall serves as a protective barrier and is essential for viability in a hypotonic environment. (1,3)-β-Glucan is a component of the Candida albicans cell wall, and the enzyme that biosynthesizes this polymer, glucan synthase, is not present in higher eukaryotes. (Glucan synthase is an integral plasma membrane protein that catalyzes polymerization of uridine diphosphate-glucose (UDP-Glc) into β-glucan.) Accordingly, glucan synthase represents an ideal target for the development of antifungal agents.
The assay was conducted as described by Frost, D., Brandt, K. Capobioanco, and Goldman, R., Microbiology 140: 2239-2246 (1994) which is incorporated herein by reference.

T1 sequence (A0A1D8PCT0 1-1897): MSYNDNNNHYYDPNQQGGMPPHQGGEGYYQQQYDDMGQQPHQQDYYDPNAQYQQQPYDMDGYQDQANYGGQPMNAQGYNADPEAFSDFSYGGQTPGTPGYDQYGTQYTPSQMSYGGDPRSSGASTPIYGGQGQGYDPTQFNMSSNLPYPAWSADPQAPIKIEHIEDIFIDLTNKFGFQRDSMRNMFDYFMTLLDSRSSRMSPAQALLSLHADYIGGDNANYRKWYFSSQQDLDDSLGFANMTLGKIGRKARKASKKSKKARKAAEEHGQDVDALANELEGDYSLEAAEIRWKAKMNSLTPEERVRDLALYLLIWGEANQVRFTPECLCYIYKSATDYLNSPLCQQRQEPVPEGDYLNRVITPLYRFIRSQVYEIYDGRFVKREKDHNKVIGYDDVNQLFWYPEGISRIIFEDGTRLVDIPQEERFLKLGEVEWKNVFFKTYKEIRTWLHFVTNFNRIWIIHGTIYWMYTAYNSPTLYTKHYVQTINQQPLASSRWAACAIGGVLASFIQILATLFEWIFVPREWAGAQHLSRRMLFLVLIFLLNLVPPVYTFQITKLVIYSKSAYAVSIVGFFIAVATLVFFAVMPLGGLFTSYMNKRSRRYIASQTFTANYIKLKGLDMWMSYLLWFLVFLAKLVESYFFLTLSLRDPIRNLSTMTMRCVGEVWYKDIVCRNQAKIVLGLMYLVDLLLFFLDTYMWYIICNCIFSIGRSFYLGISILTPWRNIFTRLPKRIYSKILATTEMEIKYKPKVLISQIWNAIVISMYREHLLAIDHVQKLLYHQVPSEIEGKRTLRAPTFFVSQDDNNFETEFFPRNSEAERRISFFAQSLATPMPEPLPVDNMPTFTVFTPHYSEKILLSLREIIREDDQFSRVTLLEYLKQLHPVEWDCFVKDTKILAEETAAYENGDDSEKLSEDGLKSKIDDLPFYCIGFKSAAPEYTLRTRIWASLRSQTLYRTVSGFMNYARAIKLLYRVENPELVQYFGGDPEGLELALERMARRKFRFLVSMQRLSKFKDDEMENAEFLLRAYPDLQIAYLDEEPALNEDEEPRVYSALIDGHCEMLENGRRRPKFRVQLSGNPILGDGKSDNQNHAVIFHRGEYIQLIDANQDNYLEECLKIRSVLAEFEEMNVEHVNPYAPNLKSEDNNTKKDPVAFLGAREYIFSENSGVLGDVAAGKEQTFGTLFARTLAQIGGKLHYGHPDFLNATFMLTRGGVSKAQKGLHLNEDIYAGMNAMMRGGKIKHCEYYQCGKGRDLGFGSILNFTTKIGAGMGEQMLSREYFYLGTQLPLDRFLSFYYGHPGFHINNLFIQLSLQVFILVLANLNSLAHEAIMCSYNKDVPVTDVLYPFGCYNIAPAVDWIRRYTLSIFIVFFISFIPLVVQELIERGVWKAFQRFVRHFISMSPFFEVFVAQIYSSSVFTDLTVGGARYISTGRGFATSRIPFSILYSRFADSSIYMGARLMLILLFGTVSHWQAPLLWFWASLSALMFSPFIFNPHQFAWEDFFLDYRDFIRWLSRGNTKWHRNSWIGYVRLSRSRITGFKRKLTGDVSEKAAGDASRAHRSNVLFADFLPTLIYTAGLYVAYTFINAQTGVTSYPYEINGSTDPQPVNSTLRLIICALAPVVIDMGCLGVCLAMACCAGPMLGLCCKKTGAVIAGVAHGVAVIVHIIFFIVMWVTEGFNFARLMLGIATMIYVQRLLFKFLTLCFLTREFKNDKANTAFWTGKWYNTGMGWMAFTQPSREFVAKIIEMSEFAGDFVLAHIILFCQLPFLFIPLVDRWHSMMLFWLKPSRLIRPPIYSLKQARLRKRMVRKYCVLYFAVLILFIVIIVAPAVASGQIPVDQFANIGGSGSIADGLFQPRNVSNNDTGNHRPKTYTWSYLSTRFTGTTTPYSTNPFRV
T1 sequence (O42825 1-195 partner): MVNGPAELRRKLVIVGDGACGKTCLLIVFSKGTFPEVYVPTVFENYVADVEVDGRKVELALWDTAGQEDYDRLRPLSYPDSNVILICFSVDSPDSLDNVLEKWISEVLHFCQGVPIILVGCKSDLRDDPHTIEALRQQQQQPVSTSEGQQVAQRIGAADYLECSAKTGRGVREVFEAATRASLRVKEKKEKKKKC

Compound | MIC [1] [µg/mL] | Rescue of cell growth by sorbitol ([1]; cells treated with compound, sorbitol present) | Broth Dilution Assay MIC at 2 day growth, with sorbitol [1] [mg/mL] | Broth Dilution Assay MIC at 2 day growth, w/o sorbitol [1] [mg/mL] | In Vitro Inhibition of (1,3)-β-Glucan Synthase Activity IC50 [2] [µg/mL]
C[C@@H]1[C@H](O)[C@@H](C)/C=C/C=C/C=C/C=C/C=C/C=C/C=C/[C@H](O[C@@H]2O[C@H](C)[C@@H](O)[C@H](N)[C@@H]2O)C[C@@H]2O[C@](O)(C[C@@H](O)C[C@@H](O)[C@H](O)CC[C@@H](O)C[C@@H](O)CC(=O)O[C@H]1C)C[C@H](O)[C@H]2C(=O)O [Amphotericin B] | 480 (≈ 519 µM) | – | – | – | –
CCCCCCCCOc1ccc(C(=O)N[C@H]2C[C@@H](O)[C@@H](O)NC(=O)[C@@H]3[C@@H](O)[C@@H](C)CN3C(=O)[C@H]([C@@H](C)O)NC(=O)[C@H]([C@H](O)[C@@H](O)c3ccc(O)cc3)NC(=O)[C@@H]3C[C@@H](O)CN3C(=O)[C@H]([C@@H](C)O)NC2=O)cc1 [Cilofungin] ({Benzoyl(4-octyloxy)}-[Orn(4R-OH,5R-OH)]T[Hyp][hTyr(3S-OH,4S-OH)]T[Pro(3S-OH,4S-Me)]; lactam 1-C) | 980 (≈ 951 µM) | – | – | – | –
CCCCC/C=C\C=C\C(=O)OC[C@H]1O[C@@H](O[C@H]2[C@H](OC(=O)/C(C)=C/C=C/CC(O)C(C)CC)[C@@H](O)[C@H](c3c(O)cc(O)cc3CO)O[C@@H]2CO)[C@H](O)[C@@H](O)[C@H]1O (stereo partly shown) [Corynecandin] | 980 (≈ 1210 µM) | Sorbitol could rescue the growth of cells | – | – | –
CCC(O)/C=C/C=C/C=C/C(=O)OC[C@H]1O[C@@H](O[C@H]2[C@H](OC(=O)/C=C/C=C/CC(O)/C(C)=C/C=C/CCC(C)CC)[C@@H](O)[C@@]3(OCc4cc(O)cc(O)c43)O[C@@H]2CO)[C@H](O)[C@@H](O)[C@H]1O (stereo partly shown) [Papulacandin B] | – | – | > 250 | 1.96 | 1.9
Fusacandin | – | – | > 250 | 1.96 | 25.0

Source: patent US5863773A, “Antifungal corynecandin” (Abbott Laboratories, priority 1997, dated 1999)
